{
  "source": "paper PMC7217877",
  "about": "“N-AS-triggered SPMs are direct regulators of microglia in a model of Alzheimer’s disease” (Nature Communications, 2020)",
  "test_system": "APP/PS1 mice",
  "test": "Morris water maze test (Fig 6k-q)",
  "assay_type": "in vivo, mouse",
  "parameters": "Morris water maze learning curve (Figure 6k) / Morris water maze learning curve (Figure 6k), group mean (평균) / Morris water maze, Non-Target quadrant (Figure 6l) / Morris water maze, Target quadrant (Figure 6l) / Morris water maze, A0 (Target quadrant) (Figure 6m) / Morris water maze, quadrant A1 (Figure 6m) / Morris water maze, quadrant A2 (Figure 6m) / Morris water maze, quadrant A3 (Figure 6m): unit not given here",
  "conditions": "for Morris water maze learning curve (Figure 6k), group mean (평균): AD/N-AS group mean; for Morris water maze learning curve (Figure 6k): AD/N-AS individual animals",
  "protocol": "Transgenic mouse lines over-expressing the hAPP695swe (APP) and presenilin-1M146V (PS1) mutations were originated from GlaxoSmithKline (Harlow, UK)[32] and maintained as described previously. We purchased 5×FAD mice from Jackson Labs (Stock number. 34840-JAX). Because APP/PS1 and 5xFAD mice show sex differences in disease progression, we used only male mice. To examine possible therapeutic effect of N-AS and aspirin in APP/PS1 mice, the N-AS (30 mg kg^−1, Sigma-Aldrich, 01912) was injected daily s.c. for 8 weeks to 7-months-old APP/PS1 mice until the age of 9 months, and aspirin (2 mg kg^−1, Sigma-Aldrich, A5376)[33] was administrated orally to 7-months-old APP/PS1 mice for 8 weeks. […] Block randomization method was used to allocate the animals to experimental groups. To eliminate the bias, we were blinded in experimental progress such as data collection and data analysis. Mice were housed at temperature of 22 °C and a 12 h day/12 h night cycle with free access to tap water and food pellets. All protocols were approved by the Kyungpook National University Institutional Animal Care and Use Committee. We performed behavioral studies to assess spatial learning and memory in the Morris water maze as previously described[11],[31]. Animals were given four trials per day for 10 days to learn the task. At day 11, animals were given a probe trial in which the platform was removed. Fear conditioning was conducted by previously described techniques. On the conditioning day, mice were individually placed into the conditioning chamber. After a 60 s exploratory period, a tone (10 kHz, 70 dB) was delivered for 10 s; this served as the conditioned stimulus (CS). The CS co-terminated with the unconditioned stimulus (US), a scrambled electrical footshock (0.3 mA, 1 s). The CS-US pairing was delivered twice at a 20 s intertrial interval. On day 2, each mouse was placed in the fear-conditioning chamber containing the same exact context, but with no administration of a CS or foot shock. Freezing was analyzed for 5 min. On day 3, a mouse was placed in a test chamber that was different from the conditioning chamber. After a 60 s exploratory period, the tone was presented for 60 s without the footshock. The rate of freezing response of mice was used to measure the fear memory. The open field test was used for locomotion and anxious behaviors as previously described. The open field box consisted of a square box. Each animal was placed in the box for 10 min. Overall activity in the box was measured, and the amount of time and distance traveled in the center arena was noted. After each trial, the test chambers were cleaned with a damp towel and distilled water followed by 70% alcohol. The light-dark test was used for assessing the anxiety-like behavior as previously described. One chamber was brightly illuminated, whereas the other chamber was dark. Mice were placed into the dark chamber and allowed to move freely between the two chambers with the door open for 10 min. The total number of transitions, latency to first enter the light chamber, distance traveled, and time spent in each chamber were recorded.",
  "key": {"[1]": {"conditions": "APP/PS1 + N-AS, individual animals"}},
  "note": "“And” between values parts separate entries of the source, which are not always exact repeats. Identical values can stand only once.",
  "data": [
    {"compound": "CCCCCCCCCCCCC/C=C/[C@@H](O)[C@H](CO)NC(C)=O", "note": "[N-AS, N-((2S,3R,E)-1,3-Dihydroxyoctadec-4-en-2-yl)acetamide]", "values": [
      {"measurement": "Morris water maze, A0 (Target quadrant) (Figure 6m)", "setting": "[1]", "result": "14.5 and 35 and 17.5 and 31.5 and 19.5 and 29.5 and 37.5 and 7.5 and 9.5 and 20 and 10 and 18 and 24 and 10.5 and 30.5 and 43"},
      {"measurement": "Morris water maze, Non-Target quadrant (Figure 6l)", "setting": "[1]", "result": "15.1667 and 8.333 and 14.1667 and 9.5 and 13.5 and 10.1667 and 7.5 and 17.5 and 16.8333 and 13.3333 and 16.6667 and 14 and 12 and 16.5 and 9.833 and 5.667"},
      {"measurement": "Morris water maze, Target quadrant (Figure 6l)", "setting": "[1]", "result": "14.5 and 35 and 17.5 and 31.5 and 19.5 and 29.5 and 37.5 and 7.5 and 9.5 and 20 and 10 and 18 and 24 and 10.5 and 30.5 and 43"},
      {"measurement": "Morris water maze, quadrant A1 (Figure 6m)", "setting": "[1]", "result": "17.5 and 9 (2×) and 20 and 6.5 (2×) and 15.5 (2×) and 32 and 21 and 8.5 and 28 and 14 and 22 and 6 and 3"},
      {"measurement": "Morris water maze, quadrant A2 (Figure 6m)", "setting": "[1]", "result": "16 and 9.5 and 14 and 9 and 21.5 and 19 and 2 and 2.5 and 10 and 15 (2×) and 13.5 and 11.5 and 21 and 19.5 and 7"},
      {"measurement": "Morris water maze, quadrant A3 (Figure 6m)", "setting": "[1]", "result": "12 and 6.5 (2×) and 8.5 and 13 and 10 and 5 (2×) and 18 and 19.5 and 16.5 and 7 (2×) and 14.5 and 9 and 4"},
      {"measurement": "memory formation, Morris water maze", "setting": "N-AS vs vehicle APP/PS1", "result": "largely protected from this defect"},
      {"measurement": "Morris water maze learning curve (Figure 6k), group mean (평균)", "setting": "day 1", "result": 42.2833},
      {"measurement": "Morris water maze learning curve (Figure 6k)", "setting": "day 1", "result": "60 and 38.125 and 47.875 and 37.75 and 40.875 and 47.75 and 32.5 and 22.875 and 46 and 29.25 and 55.625"},
      {"measurement": "Morris water maze learning curve (Figure 6k), group mean (평균)", "setting": "day 2", "result": 36.025},
      {"measurement": "Morris water maze learning curve (Figure 6k)", "setting": "day 2", "result": "40.25 and 39.875 and 60 and 24.625 and 34.625 and 51 and 16.875 and 15.75 and 46.75 and 19.875"},
      {"measurement": "Morris water maze learning curve (Figure 6k), group mean (평균)", "setting": "day 3", "result": 36.0583},
      {"measurement": "Morris water maze learning curve (Figure 6k)", "setting": "day 3", "result": "37.5 and 38.875 and 60 and 43.625 and 20.125 and 43.25 and 17.375 and 42 and 34.75 and 24.875"},
      {"measurement": "Morris water maze learning curve (Figure 6k), group mean (평균)", "setting": "day 4", "result": 34.2583},
      {"measurement": "Morris water maze learning curve (Figure 6k)", "setting": "day 4", "result": "37.125 and 35.25 and 60 and 49.75 and 25.875 and 12 and 37.5 and 8.375 and 36.125"},
      {"measurement": "Morris water maze learning curve (Figure 6k), group mean (평균)", "setting": "day 5", "result": 34.3417},
      {"measurement": "Morris water maze learning curve (Figure 6k)", "setting": "day 5", "result": "43.125 and 17.125 and 55.5 and 30.25 and 26.375 and 55.25 and 23.875 and 38.5 and 13.5 and 31.125"},
      {"measurement": "Morris water maze learning curve (Figure 6k), group mean (평균)", "setting": "day 6", "result": 32.3333},
      {"measurement": "Morris water maze learning curve (Figure 6k)", "setting": "day 6", "result": "28.5 and 25 and 50.375 and 17.375 and 47.125 and 52.75 and 16.25 and 60 and 13.25 and 35.25"},
      {"measurement": "Morris water maze learning curve (Figure 6k), group mean (평균)", "setting": "day 7", "result": 30.9667},
      {"measurement": "Morris water maze learning curve (Figure 6k)", "setting": "day 7", "result": "47.875 and 26.5 and 46.5 and 22.75 and 19 and 33.75 and 27.5 and 50.25 and 12.375 and 43"},
      {"measurement": "Morris water maze learning curve (Figure 6k), group mean (평균)", "setting": "day 8", "result": 23.3417},
      {"measurement": "Morris water maze learning curve (Figure 6k)", "setting": "day 8", "result": "37.125 and 17.75 and 27.875 and 22.625 and 16.625 and 24.375 and 5.5 and 25.125 and 14.875 and 41"},
      {"measurement": "Morris water maze learning curve (Figure 6k), group mean (평균)", "setting": "day 9", "result": 22.7083},
      {"measurement": "Morris water maze learning curve (Figure 6k)", "setting": "day 9", "result": "32.25 and 21.375 and 17.5 and 11.125 and 27.125 and 18.875 and 12.75 and 21.625 and 50.375 and 15.875"},
      {"measurement": "Morris water maze learning curve (Figure 6k), group mean (평균)", "setting": "day 10", "result": 21.95},
      {"measurement": "Morris water maze learning curve (Figure 6k)", "setting": "day 10", "result": "23.625 and 39.125 and 23.5 and 13 and 13.75 and 40.75 and 22.25 and 36.625 and 14.75 and 17.75"}
    ]}
  ]
}
